Experiments:
[1] = target: T1, recombinant human ALK5 (TGF-βR1) protein (Homo sapiens, UniProt P36897); test: Biochemical ALK5 (TGF-βR1) assay to measure pKi (LANCE Ultra ULight kinase assay); conditions: apparent pKi from pIC50 by Cheng-Prusoff, read-out: ALK5 pKi (converted)
T1 construct: purchased Life Technologies PR9075A
T1 sequence (P36897 34-503): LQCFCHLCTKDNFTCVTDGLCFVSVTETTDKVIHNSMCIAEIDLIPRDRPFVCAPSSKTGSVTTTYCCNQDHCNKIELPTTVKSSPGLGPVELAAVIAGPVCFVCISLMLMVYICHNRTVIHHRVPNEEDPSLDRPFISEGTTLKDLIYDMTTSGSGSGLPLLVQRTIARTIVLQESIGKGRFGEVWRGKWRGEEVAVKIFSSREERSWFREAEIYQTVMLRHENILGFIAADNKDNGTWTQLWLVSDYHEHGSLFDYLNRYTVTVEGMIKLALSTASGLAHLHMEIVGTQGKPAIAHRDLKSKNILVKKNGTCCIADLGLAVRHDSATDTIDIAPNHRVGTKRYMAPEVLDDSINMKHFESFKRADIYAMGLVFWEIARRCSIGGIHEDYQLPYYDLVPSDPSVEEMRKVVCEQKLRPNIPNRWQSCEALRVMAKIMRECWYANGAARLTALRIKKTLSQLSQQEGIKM
Procedure, shortened: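 After a 60 min room-temperature preincubation of ALK5 with compound, phosphorylation proceeds 60 min at 37 °C on ATP addition (125 μM as 5× stock). Detection: Eu-labelled phospho-Thr1342 Topo IIα antibody in EDTA buffer, pH 7.0; emission 665 nm.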

[2] = test system: TGF-β-stimulated SMAD3 phosphorylation in BEAS-2B cells; test: Cellular ALK5 potency assay, inhibition of TGF-β stimulated pSMAD3 formation in BEAS-2B cells; assay type: cell-based; conditions: Homo sapiens; inhibition of TGF-β stimulated pSMAD3 formation, BEAS-2B cells; read-out: BEAS2B pIC50 (converted)
Procedure, shortened: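 Potency is reported as pIC50, derived from concentration-dependent reduction of pSMAD3 AlphaLISA signal against TGF-β-stimulated cells without compound. BEAS-2B cells received compound for 1 h before a 30-min stimulation with 10 ng/mL TGF-β.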

Compound | Ki [1] [nM] | IC50 [2] [nM]
Cc1cccc(-c2n[nH]cc2-c2ccc3ncc(-c4cnc5n4CCNC5)cc3n2)n1 [Compound 548, 2-[3-(6-methyl-2-pyridyl)-1H-pyrazol-4-yl]-7-(5,6,7,8-tetrahydroimidazo[1,2-a]pyrazin-3-yl)-1,5-naphthyridine] | 0.0398 to 0.316 | 25.1 to 158
CNCc1ccnc2ccc(-c3c[nH]nc3-c3cccc(C)n3)cc12 [Compound 549, N-methyl-1-[6-[3-(6-methyl-2-pyridyl)-1H-pyrazol-4-yl]-4-quinolyl]methanamine] | 0.398 to 3.16 | 25.1 to 158
Cc1cccc(-c2n[nH]cc2-c2ccc3ncc(-c4nnn5c4NCCC5)cc3n2)n1 [Compound 550, 2-[3-(6-methyl-2-pyridyl)-1H-pyrazol-4-yl]-7-(4,5,6,7-tetrahydrotriazolo[1,5-a]pyrimidin-3-yl)-1,5-naphthyridine] | 0.0398 to 0.316 | 25.1 to 158
Cc1nc(-c2n[nH]cc2-c2ccc3ncc(-c4cnn(C[C@H]5CC[C@H](N)CC5)c4)cc3n2)ccc1F [Compound 551, 4-[[4-[6-[3-(5-fluoro-6-methyl-2-pyridyl)-1H-pyrazol-4-yl]-1,5-naphthyridin-3-yl]pyrazol-1-yl]methyl]cyclohexanamine] | < 0.0316 | 25.1 to 158
Cc1cccc(-c2n[nH]cc2-c2ccc3ncc(-c4ccc(C5CCCN(C)C5)cc4)cc3n2)n1 (centres unmarked) [Compound 552, 7-[4-(1-methyl-3-piperidyl)phenyl]-2-[3-(6-methyl-2-pyridyl)-1H-pyrazol-4-yl]-1,5-naphthyridine] | < 0.0316 | 200 to 1260
Cc1cccc(-c2[nH]ncc2-c2ccc3ncc(C(=O)O)cc3n2)n1 [Compound 553, 6-[5-(6-methyl-2-pyridyl)-1H-pyrazol-4-yl]-1,5-naphthyridine-3-carboxylic acid] | 3.98 to 31.6 | 1580 to 10000
CNCCn1cc(-c2cnc3ccc(-c4c[nH]nc4-c4cccc(C)n4)nc3c2)nn1 [Compound 554, N-methyl-2-[4-[6-[3-(6-methyl-2-pyridyl)-1H-pyrazol-4-yl]-1,5-naphthyridin-3-yl]triazol-1-yl]ethanamine] | < 0.0316 | 25.1 to 158
Cc1nc(-c2nc3ccccn3c2-c2ccc3ncc(-c4cn5c(n4)CNCC5)cc3n2)ccc1F [Compound 555, 2-[2-(5-fluoro-6-methyl-2-pyridyl)imidazo[1,2-a]pyridin-3-yl]-7-(5,6,7,8-tetrahydroimidazo[1,2-a]pyrazin-2-yl)-1,5-naphthyridine] | 0.0398 to 0.316 | 25.1 to 158
Cc1cccc(-c2n[nH]cc2-c2ccc3ncc(NC(C)(C)CN4CCN(C)CC4)cc3n2)n1 [Compound 556, N-[1,1-dimethyl-2-(4-methylpiperazin-1-yl)ethyl]-6-[3-(6-methyl-2-pyridyl)-1H-pyrazol-4-yl]-1,5-naphthyridin-3-amine] | 0.398 to 3.16 | 25.1 to 158
Cc1cccc(-c2[nH]nnc2-c2ccc3ncc(N4CCCNCC4)cc3n2)n1 [Compound 557, 7-(1,4-diazepan-1-yl)-2-[5-(6-methyl-2-pyridyl)-1H-triazol-4-yl]-1,5-naphthyridine] | 3.98 to 31.6 | 1580 to 10000
Cc1nc(-c2nc3ccccn3c2-c2ccc3ncc(-c4cc5n(n4)CCNC5)cc3n2)ccc1F [Compound 558, 2-[2-(5-fluoro-6-methyl-2-pyridyl)imidazo[1,2-a]pyridin-3-yl]-7-(4,5,6,7-tetrahydropyrazolo[1,5-a]pyrazin-2-yl)-1,5-naphthyridine] | 0.0398 to 0.316 | 25.1 to 158
CNCCn1cc(-c2cnc3ccc(-c4nc[nH]c4-c4ccc(F)c(C)n4)nc3c2)cn1 [Compound 559, 2-[4-[6-[5-(5-fluoro-6-methyl-2-pyridyl)-1H-imidazol-4-yl]-1,5-naphthyridin-3-yl]pyrazol-1-yl]-N-methyl-ethanamine] | 0.0398 to 0.316 | 25.1 to 158
Cc1nc(-c2nc3ccccn3c2-c2ccc3ncc(-c4cnc5n4CCNC5)cc3n2)ccc1F [Compound 560, 2-[2-(5-fluoro-6-methyl-2-pyridyl)imidazo[1,2-a]pyridin-3-yl]-7-(5,6,7,8-tetrahydroimidazo[1,2-a]pyrazin-3-yl)-1,5-naphthyridine] | 0.0398 to 0.316 | 25.1 to 158
Cc1cccc(-c2n[nH]cc2-c2ccc3ncc(-c4ccc(N)nc4)cc3n2)n1 [Compound 562, 5-[6-[3-(6-methyl-2-pyridyl)-1H-pyrazol-4-yl]-1,5-naphthyridin-3-yl]pyridin-2-amine] | < 0.0316 | < 20
Cc1cccc(-c2[nH]ncc2-c2ccc3ncc(C(=O)O[C@H]4CCN(C)C4)cc3n2)n1 [Compound 563, [(3S)-1-methylpyrrolidin-3-yl]6-[5-(6-methyl-2-pyridyl)-1H-pyrazol-4-yl]-1,5-naphthyridine-3-carboxylate] | 0.0398 to 0.316 | 25.1 to 158
Cc1cccc(-c2n[nH]cc2-c2ccc3ncc(-c4cc5n(n4)CCN5)cc3n2)n1 [Compound 564, 7-(2,3-dihydro-1H-imidazo[1,2-b]pyrazol-6-yl)-2-[3-(6-methyl-2-pyridyl)-1H-pyrazol-4-yl]-1,5-naphthyridine] | < 0.0316 | < 20
Cc1cccc(-c2n[nH]cc2-c2ccc3ncc(-c4ccncc4)cc3n2)n1 [Compound 565, 2-[3-(6-methyl-2-pyridyl)-1H-pyrazol-4-yl]-7-(4-pyridyl)-1,5-naphthyridine] | < 0.0316 | < 20
Cc1cccc(-c2n[nH]cc2-c2ccc3ncc(NCC4CN5CCN4CC5)cc3n2)n1 (centres unmarked) [Compound 566, N-(1,4-diazabicyclo[2.2.2]octan-2-ylmethyl)-6-[3-(6-methyl-2-pyridyl)-1H-pyrazol-4-yl]-1,5-naphthyridin-3-amine] | 0.0398 to 0.316 | 25.1 to 158
Cc1cccc(-c2nnn(C)c2-c2ccc3ncc(N4CCCNCC4)cc3c2)n1 [Compound 567, 3-(1,4-diazepan-1-yl)-6-[3-methyl-5-(6-methyl-2-pyridyl)triazol-4-yl]quinoline] | 0.398 to 3.16 | 25.1 to 158
Cc1nc(-c2[nH]cnc2-c2ccc3ncc(NCCN4CCCC4)cc3n2)ccc1F [Compound 568, 6-[5-(5-fluoro-6-methyl-2-pyridyl)-1H-imidazol-4-yl]-N-(2-pyrrolidin-1-ylethyl)-1,5-naphthyridin-3-amine] | 0.0398 to 0.316 | 25.1 to 158
Cc1nc(-c2n[nH]cc2-c2ccc3ncc(-c4cnn([C@@H]5CCC[C@@H]5N)c4)cc3n2)ccc1F [Compound 569, (1S,2R)-2-[4-[6-[3-(5-fluoro-6-methyl-2-pyridyl)-1H-pyrazol-4-yl]-1,5-naphthyridin-3-yl]pyrazol-1-yl]cyclopentanamine] | 0.0398 to 0.316 | 25.1 to 158
Cc1cccc(-c2n[nH]cc2-c2ccc3ncc(-c4cnn5c4NCC5)cc3n2)n1 [Compound 570, 7-(2,3-dihydro-1H-imidazo[1,2-b]pyrazol-7-yl)-2-[3-(6-methyl-2-pyridyl)-1H-pyrazol-4-yl]-1,5-naphthyridine] | < 0.0316 | < 20
Cc1cccc(-c2n[nH]cc2-c2ccc3ncc(-c4cnn(CCN5CCCC5=O)c4)cc3n2)n1 [Compound 571, 1-[2-[4-[6-[3-(6-methyl-2-pyridyl)-1H-pyrazol-4-yl]-1,5-naphthyridin-3-yl]pyrazol-1-yl]ethyl]pyrrolidin-2-one] | < 0.0316 | 25.1 to 158
Cc1cccc(-c2[nH]cnc2-c2ccc3ncc(-c4cnn(CCN)c4)cc3c2)n1 [Compound 572, 2-[4-[6-[5-(6-methyl-2-pyridyl)-1H-imidazol-4-yl]-3-quinolyl]pyrazol-1-yl]ethanamine] | 0.0398 to 0.316 | 25.1 to 158
Cc1cccc(-c2[nH]cnc2-c2ccc3ncc(NCCN4CCCC4)cc3n2)n1 [Compound 573, 6-[5-(6-methyl-2-pyridyl)-1H-imidazol-4-yl]-N-(2-pyrrolidin-1-ylethyl)-1,5-naphthyridin-3-amine] | 0.0398 to 0.316 | 25.1 to 158
Cc1nc(-c2n[nH]cc2-c2ccc3ncc(-c4cc5n(n4)CCN5)cc3n2)ccc1F [Compound 574, 7-(2,3-dihydro-1H-imidazo[1,2-b]pyrazol-6-yl)-2-[3-(5-fluoro-6-methyl-2-pyridyl)-1H-pyrazol-4-yl]-1,5-naphthyridine] | < 0.0316 | < 20
Cc1nc(-c2nc3ccccn3c2-c2ccc3ncc(-c4cnn(C5CCCNC5)c4)cc3n2)ccc1F (centres unmarked) [Compound 576, 2-[2-(5-fluoro-6-methyl-2-pyridyl)imidazo[1,2-a]pyridin-3-yl]-7-[1-(3-piperidyl)pyrazol-4-yl]-1,5-naphthyridine] | 0.0398 to 0.316 | 25.1 to 158
Cc1cccc(-c2[nH]cnc2-c2ccc3ncc(-c4cncc(C(=O)OC5CNC5)c4)cc3c2)n1 [Compound 577, azetidin-3-yl 5-[6-[5-(6-methyl-2-pyridyl)-1H-imidazol-4-yl]-3-quinolyl]pyridine-3-carboxylate] | 0.0398 to 0.316 | 200 to 1260
